Source: US9671415B2, “Immunoassay for pyrrolidinophenones” (RANDOX LABORATORIES LIMITED, priority 2014, dated 2017)
In brackets after ≈: the same amount, converted by molar mass. Several values for one entry are separate records, joined by “and”; a condition that tells them apart may be missing. Equal entries are not always repeated. Structures can show the parent of a compound that is named as a salt.

What was measured:
Antibody-1B = assay: Competitive ELISA for pyrrolidinophenones, Antibody-1B with Tracer-1 (Example 10); type: binding, sheep; conditions: Antibody-1B coated at 2.5 μg/ml, Tracer-1 at 1/128k; for IC50 / % Cross-Reactivity: Table 2; for % Cross-Reactivity: relative to α-PVP = 100
Experimental: The purified polyclonal antibody from Example 9 (Antibody-1B) was immobilised on a 96 well ELISA plate at 2.5 μg/ml in 10 mM TRIS buffer, pH 8.5 overnight at 4° C. The assay is based on competition for binding sites of a polyclonal antibody between HRP tracer (Tracer-1) and α-PVP or potential cross-reactants. The plate was washed (×3) with TBST (Tris-Buffered Saline/Tween solution) and the calibrator (α-PVP) or potential cross reactants added (50 μl per well), followed by HRP tracer (Tracer-1) (75 μl/well) to the appropriate wells. The plates were then incubated for 60 minutes at 25° C. They were then subjected to 2 quick wash cycles using TBST, followed by 4×2 minute wash cycles. 125 μl of signal (TMB) was then added to each well for 20 mins at room temperature in the dark. The reaction was stopped by the addition of 125 μl of 0.2 M sulphuric acid per well and the plates read immediately at 450 nm. Calibration curves were generated using α-PVP and these were used to determine the sensitivity and specificity of the immunoassay for potential cross-reactants. The data was inputted to a computer program called KC Junior (Biotek). It gives a 4 parameter fit curve and allows the calculation of concentrations between the standard runs. This program is used to calculate the IC50 values by dividing the 0 ng/ml optical density (OD) value by 2 and obtaining the concentration value from the curve for this OD. The results of this study are presented in Tables 1 and 2, cross-reactivity being calculated according to the following formula: % CR=[…]/IC50 CR×100 wherein % CR is the percentage cross-reactivity, IC50 α-PVP is the concentration of α-PVP which causes 50% displacement of signal and IC50 CR is the concentration of potential cross-reactant that causes 50% displacement of signal.
Antibody-1B (Example 9) used to generate the data in the tables below was raised from Immunogen-1B (Example 7) and the HRP tracer (Tracer-1) was prepared as in Example 8. All of the compounds in Table 2 are commercially available from suppliers such as Cayman Chemical (Ann Arbor, Mich., USA).

α-PVP antibody = assay: α-PVP/MDPV ELISA kit validation assay (Example 11); type: binding; conditions: for % Cross-Reactivity: α-PVP/MDPV ELISA kit specificity, relative to α-PVP = 100, Table 10; for % CR: calculated with reference to the standard of that run; for Reactant IC50: standard concentration which produced 50% B/B0 in that run
Experimental: A microtitre plate was precoated with α-PVP antibody. α-PVP (antigen), if present in the sample competes with the horseradish peroxidase labelled α-PVP (enzyme labelled antigen) for a limited number of antibody sites on the microtitre plate. After incubation at room temperature to allow a competition reaction to take place, the microtitre plate was washed to remove excess reagents. The enzyme substrate was added. After an incubation period to allow maximum colour development, the colour reaction was stopped by the addition of acid. This produces a colour change from blue to yellow, and the absorbances are read at 450 nm. A standard curve was then constructed to determine the α-PVP concentration in the sample.
2. Urine samples were diluted 1:50 with diluent (I.e. 10 μl sample+490 μl diluent).
• 1. Whole blood samples were diluted 1:50 with diluent (i.e. 10 μl sample+490 μL diluent). • 2. The sample was mixed gently by pipetting without the formation of foam. Procedure
The assay was performed in duplicate. The layout of Table 4 was used where each box represents 2 wells:
a) Table 5 details what was pipetted into the appropriate wells of the microtitre plate:
b) The microtitre plate was gently tapped from side to side for a few seconds. c) The microtitre plate was covered with a plate sealer before incubating for 30 minutes at room temperature (+15° C. to +25° C.) in the dark. d) The plate was inverted and the liquid tapped out liquid. e) The plate was washed 6 times with diluted wash buffer (ensuring all wells were filled), over a 10-15 minute period. After the final wash the liquid was discarded liquid and the plate was tapped onto lint free tissue paper until completely dry. f) Immediately after washing, one 125 μl shot of substrate was pipetted into each well using a multichannel pipette. The microtitre plate was gently tapped from side to side and incubated for 20±2 minutes at room temperature (+15 to +25° C.) in the dark. g) The colour reaction was stopped by the addition of 100 μl of stop solution per well. A colour change from blue to yellow resulted. h) The optical density was measured at 450 nm within 10 minutes of stopping the colour reaction. The use of a 630 nm filter was used as the reference wavelength. […] Assay Cut-Off
Equally, pyrrolidinopentiothiophenone and mdpbp were assessed in the same run; and mdppp and α-pyrrolidinopropiophenone were assessed in the same run. […] The Reactant IC50s (i.e. ^2 in the table above) are the standard concentrations which produced 50% B/B0 in that run. The % CR (last column in the table above) is calculated with reference to the standard used in that particular run.

Antibodies in EP2626358 = conditions: immunoassay of EP2626358; cited from earlier work
[1] = unit not given, Table 11, in ng/mL

SMILES	IC50 (Antibody-1B) [ng/mL]	% Cross-Reactivity (Antibody-1B) [%]	% Cross-Reactivity (α-PVP antibody) [%]	% CR (α-PVP antibody; Table 11) [%]	Reactant IC50 (α-PVP antibody; [1])	other results
Cc1ccc(C(=O)C(C)N2CCCC2)cc1 (racemic) [4′-Methyl-α-pyrrolidinopropiophenone]	>10	<3.150	1.8			
CC(C(=O)c1ccc2c(c1)OCO2)N1CCCC1 (stereo not drawn) [3′,4′-Methylenedioxy-α-pyrrolidinopropiophenone]			0.8	0.8	17.727	
CCCCCCC(C(=O)c1ccc(F)cc1)N1CCCC1.Cl (stereo not drawn) [4-Fluoro-PV9 HCl, 1-(4-fluorophenyl)-2-(pyrrolidin-1-yl)octan-1-one, monohydrochloride]			3.2			
CNC(C)C(=O)c1ccc(F)cc1 (stereo not drawn) [4-Fluoromethcathinone, 4-fluoro-N-methylcathinone]			<1			
CCCCCC(C(=O)c1ccc(OC)cc1)N1CCCC1.Cl (stereo not drawn) [4-Methoxy-PV8 HCl, 1-(4-methoxyphenyl)-2-(pyrrolidin-1-yl)heptan-1-one, hydrochloride]			11.7			
CCCC(C(=O)c1ccc(OC)cc1)N1CCCC1 (stereo not drawn) [4-Methoxy-α-pyrrolidinopentiophenone, 4′-Methoxy-α-pyrrolidinopentiophenone]	0.233 (≈ 0.891 nM)	135.193				
CCCCC(C(=O)c1ccc(C)cc1)N1CCCC1 (stereo not drawn) [4′-Methyl-α-pyrrilidinohexylphenone]			38.1			
CCC(C(=O)c1ccc(C)cc1)N1CCCC1 (stereo not drawn) [4′-Methyl-α-pyrrolidinobutiophenone]			23.2			
CCC(NC)C(=O)c1ccc2c(c1)OCO2 (stereo not drawn) [Butylone, 1-(1,3-benzodioxol-5-yl)-2-(methylamino)butan-1-one]			<1			
CCC(C(=O)c1ccc2c(c1)OCO2)N1CCCC1 (stereo not drawn) [MDPBP, 3′,4′-Methylenedioxy-α-pyrrolidinobutiophenone]	1.532 (≈ 5.86 nM)	20.561	17.2	17.2	1.044	
CCCC(C(=O)c1ccc2c(c1)OCO2)N1CCCC1 (stereo not drawn) [MDPV, 3′,4′-Methylenedioxy-α-pyrrolidinopentiophenone]	0.176 (≈ 0.639 nM)	178.977	93.3	93.3	0.164	
CNC(C)C(=O)c1ccc(C)cc1 (stereo not drawn) [Mephedrone]			<1			
CNC(C)C(=O)c1ccc(OC)cc1 (stereo not drawn) [Methedrone]			<1			
CNC(C)C(=O)c1ccc2c(c1)OCO2 (stereo not drawn) [Methylone]			<1			
CCCC(C(=O)c1ccc2ccccc2c1)N1CCCC1 (stereo not drawn) [Naphyrone, 1-(naphthalen-2-yl)-2-(pyrrolidin-1-yl)pentan-1-one]	0.221 (≈ 0.785 nM)	142.534	70.2	70.2	0.218	
CCCC(NC)C(=O)c1ccc2c(c1)OCO2 (stereo not drawn) [Pentylone, 1-(1,3-benzodioxol-5-yl)-2-(methylamino)pentan-1-one]			<1			
CCCC(C(=O)c1ccc(C)cc1)N1CCCC1 (stereo not drawn) [Pyrovalerone, 4-Methyl-α-pyrrolidinopentiophenone]	0.168 (≈ 0.685 nM)	187.500	125.4	125.4	0.122	
CCCC(C(=O)c1ccccc1)N1CCCC1 (stereo not drawn) [α-PVP, α-Pyrrolidinovalerophenone]	0.315 (≈ 1.36 nM)	100	100	100	0.153	IC50 (standard concentration which produces 50% B/B0) (Antibody-1B; standard α-PVP, Table 1): 0.315 ng/mL (≈ 1.36 nM); cross-reactivity (Antibodies in EP2626358): very low; STD IC50 (α-PVP antibody; IC50 of the standard (alpha-pvp) in the same run as the reactant of the line, unit not given, Table 11, in ng/mL): 0.18 and 0.153 and 0.149
CCCC(C(=O)c1cccs1)N1CCCC1 (stereo not drawn) [α-Pyrrolidinopentiothiophenone HCl, α-Pyrrolidinopentiothiophenone]			73.2	73.2	0.246	
CC(C(=O)c1ccccc1)N1CCCC1 (stereo not drawn) [α-Pyrrolidinopropiophenone]	>10	<3.150	0.8	0.8	18.744	
